Data published in patent publication US9883671B2, “Mixture of natural or nature-identical alcohols with improved effectiveness” (L'AIR LIQUIDE, SOCIETE ANONYME POUR L'ETUDE ET …, priority 2012, dated 2018).

System: inoculation solution of test organisms: Staphylococcus aureus, Kocuria rhizophila, Enterobacter gergoviae, Escherichia coli, Klebsiella pneumoniae, Pseudomonas …
Test: Determination of the preserving effect of chemical preservatives in cosmetic formulations (Koko test), Carbopol gel
Format: cell-based, bacteria, yeast and moulds (mixed inoculum, ATCC strains)
Conditions: 0.1% by weight; inferred from Experiment 9 compared with Experiment 2
Protocol: Method A—Determination of the Preserving Effect of Chemical Preservatives in Cosmetic Formulations (Koko Test) The test described below is carried out to determine the preserving effect of chemical preservatives in cosmetic formulations. Using the described method, the aim is to test the effectiveness of chemical preservatives with regard to the pack preservation for cosmetic formulations. For this purpose, the preservatives to be tested are added in various concentrations to the unpreserved samples in different experimental batches. A continuous microbial burden is achieved by periodically inoculating the experimental batches. In parallel to the inoculation, streaks of the individual batches are in each case made immediately beforehand. Assessment is made by reference to the microbial growth of the streaks. […] In each case, 25 g of the cosmetic to be tested are weighed into wide-necked bottles with screw closure (LDPE). […] The preserving effect of the individual product concentrations is assessed in a semi-quantitative method by means of the growth of the individual streaks. […] The sample is well-preserved according to criterion A if it exists under the laboratory conditions given above for a period of six weeks without microbial attack of the sample batches, i.e. no microbial growth can be detected even after the sixth inoculation. […]

CCCCCCCCCCCO [Experiment 1-undecanol, 1-undecanol]
Preserving effect of the substance by itself, inferred: no effect
